{"source": "patent US11230525B2", "about": "“Organic sulfur compound, method for preparing same, and pharmaceutical composition for preventing or treating cancer or an inflammatory disease, containing same as active ingredient” (SOOKMYUNG WOMENS UNIVERSITY INDUSTRY-ACADEMIC COOPERATION …, priority 2016, dated 2022)", "key": {"HDAC 6": {"biological_target": "T1, HDAC 6 (Homo sapiens, UniProt Q9UBN7)", "T1 sequence (Q9UBN7 1-1215)": "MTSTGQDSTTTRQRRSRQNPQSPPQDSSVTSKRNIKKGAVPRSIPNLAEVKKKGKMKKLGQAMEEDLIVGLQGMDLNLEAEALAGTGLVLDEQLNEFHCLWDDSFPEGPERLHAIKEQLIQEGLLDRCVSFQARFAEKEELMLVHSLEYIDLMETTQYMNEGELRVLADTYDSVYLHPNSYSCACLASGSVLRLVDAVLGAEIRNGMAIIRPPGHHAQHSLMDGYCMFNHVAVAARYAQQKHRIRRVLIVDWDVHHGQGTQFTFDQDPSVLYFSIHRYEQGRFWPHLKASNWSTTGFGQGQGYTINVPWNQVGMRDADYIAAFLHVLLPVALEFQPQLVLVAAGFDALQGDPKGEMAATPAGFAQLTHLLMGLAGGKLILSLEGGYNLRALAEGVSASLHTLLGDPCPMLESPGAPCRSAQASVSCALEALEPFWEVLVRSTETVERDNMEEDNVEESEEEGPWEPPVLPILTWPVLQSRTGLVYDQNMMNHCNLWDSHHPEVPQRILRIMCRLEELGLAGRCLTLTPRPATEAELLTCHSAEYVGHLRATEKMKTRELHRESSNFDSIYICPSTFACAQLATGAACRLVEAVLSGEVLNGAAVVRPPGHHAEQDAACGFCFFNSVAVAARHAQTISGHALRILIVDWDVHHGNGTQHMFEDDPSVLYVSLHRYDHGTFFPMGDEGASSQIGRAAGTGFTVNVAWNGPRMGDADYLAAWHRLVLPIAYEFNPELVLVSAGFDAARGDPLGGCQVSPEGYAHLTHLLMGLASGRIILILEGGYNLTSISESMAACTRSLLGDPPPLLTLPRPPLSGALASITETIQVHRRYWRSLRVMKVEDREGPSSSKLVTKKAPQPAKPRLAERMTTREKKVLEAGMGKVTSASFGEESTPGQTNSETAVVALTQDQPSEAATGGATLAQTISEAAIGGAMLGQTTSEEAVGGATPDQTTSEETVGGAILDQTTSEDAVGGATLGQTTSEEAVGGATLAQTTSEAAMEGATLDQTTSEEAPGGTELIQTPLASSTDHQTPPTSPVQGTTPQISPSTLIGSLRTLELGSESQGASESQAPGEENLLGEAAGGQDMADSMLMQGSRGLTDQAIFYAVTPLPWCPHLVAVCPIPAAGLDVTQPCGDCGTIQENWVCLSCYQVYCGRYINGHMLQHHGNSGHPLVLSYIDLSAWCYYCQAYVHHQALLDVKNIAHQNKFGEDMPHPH", "test": "HDAC enzyme fluorescence assay, HDAC 6", "format": "biochemical", "conditions": "recombinant HDAC enzyme, Boc-Lys(acetyl)-AMC", "procedure": "(§1) Particularly, HDAC enzyme analysis was performed based on a uniform fluorescence emission assay. First, the compounds of examples of the present invention or comparative example 1 were diluted at different concentrations, which were treated to the analysis buffer containing 25 mM HEPES (pH 8.0), 137 mM NaCl, 1 mM MgCl2 and 2.7 mM KCL, followed by culture of the recombinant HDAC enzyme. 10 minutes later, Boc-Lys(acetyl)-AMC, the fluorescence inducing substrate, was added thereto, followed by further culture at 37° C. At this time, the concentration of the fluorescence inducing substrate and the culture time were adjusted according to the isotypes of the HDAC enzyme. The reaction was terminated by treating trypsin at room temperature for 20 minutes. The fluorescence intensity was measured using a fluorescence analyzer at an excitation wavelength of 380 nm and an emission wavelength of 460 nm, respectively. The inhibition rate was calculated from the measured fluorescence intensity of each well with comparing to that of the control well. IC50 of the compound was calculated by analyzing the dose-reaction inhibition curve."}, "[1]": {"tested_on": "breast cancer cell line (MDA-MB-231)", "test": "Cancer proliferation inhibitory activity (SRB, GI50), MDA-MB-231", "format": "cell-based", "conditions": "Homo sapiens, 48 hours", "procedure,_shortened": "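48 h compound exposure, 0.1–10 μM, 0.1% DMSO control; RPMI 1640/10% FBS, 37 °C, 5% CO2. TCA fix, 0.4% SRB stain, 10 mM Tris (pH 10.5) extraction, OD540; GI50 fitted.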"}, "HDAC 1": {"biological_target": "HDAC 1 (Homo sapiens, UniProt Q13547)", "sequence (Q13547 whole entry, species assumed)": "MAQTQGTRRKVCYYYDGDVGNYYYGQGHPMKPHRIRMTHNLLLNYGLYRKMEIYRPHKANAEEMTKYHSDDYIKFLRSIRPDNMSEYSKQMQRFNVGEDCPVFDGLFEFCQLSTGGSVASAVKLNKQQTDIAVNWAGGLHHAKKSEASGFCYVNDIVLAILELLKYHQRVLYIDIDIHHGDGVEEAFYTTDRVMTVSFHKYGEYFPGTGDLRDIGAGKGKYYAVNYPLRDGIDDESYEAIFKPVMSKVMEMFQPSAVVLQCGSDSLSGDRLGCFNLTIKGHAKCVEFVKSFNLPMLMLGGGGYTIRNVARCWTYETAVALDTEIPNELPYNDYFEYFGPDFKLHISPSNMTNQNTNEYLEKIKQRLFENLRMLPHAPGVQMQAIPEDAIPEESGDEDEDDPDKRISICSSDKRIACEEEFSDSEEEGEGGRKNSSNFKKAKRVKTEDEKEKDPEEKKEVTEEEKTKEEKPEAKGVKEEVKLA", "test": "HDAC enzyme fluorescence assay, HDAC 1", "format": "biochemical", "conditions": "recombinant HDAC enzyme, Boc-Lys(acetyl)-AMC", "procedure": "as §1"}, "HDAC 8": {"biological_target": "T2, HDAC 8 (Homo sapiens, UniProt Q9BY41)", "T2 sequence (Q9BY41 1-377)": "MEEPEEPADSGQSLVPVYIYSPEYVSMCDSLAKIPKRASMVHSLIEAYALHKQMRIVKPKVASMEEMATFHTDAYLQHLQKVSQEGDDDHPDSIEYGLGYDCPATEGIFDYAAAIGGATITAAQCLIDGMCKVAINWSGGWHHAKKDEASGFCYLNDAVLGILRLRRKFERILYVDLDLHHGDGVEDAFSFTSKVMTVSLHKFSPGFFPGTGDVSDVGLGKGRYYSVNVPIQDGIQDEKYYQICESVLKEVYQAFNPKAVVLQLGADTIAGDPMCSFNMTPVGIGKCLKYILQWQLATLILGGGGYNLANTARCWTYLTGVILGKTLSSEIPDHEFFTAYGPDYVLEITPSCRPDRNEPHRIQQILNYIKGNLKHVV", "test": "HDAC enzyme fluorescence assay, HDAC 8", "format": "biochemical", "design": "Inhibitory activity (%) HDAC 8: concentration or dose not given beside the values", "conditions": "for Inhibitory activity (%) HDAC 8: (HDAC inhibitory activity of example compound/HDAC inhibitory activity of SAHA) × 100", "procedure,_shortened": "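Recombinant HDAC8 preincubated 10 min with compound in 25 mM HEPES pH 8.0, 137 mM NaCl, 1 mM MgCl2, 2.7 mM KCl, then Boc-Lys(acetyl)-AMC added at 37° C (level and time set per isoform). Trypsin development 20 min at room temperature, fluorescence 380/460 nm; activity expressed as percent relative to SAHA reference.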"}}, "note": "Read-outs that look alike come from different tables or passages of the source.", "data": [{"compound": "COc1ccc([S+]([O-])C/C=C\\SSCc2ccccc2)cc1", "note": "(stereo not shown) [Example 32, (Z)-1-benzyl-2-(3-(4-methoxyphenylsulfinyl)prop-1-enyl)disulfane]", "values": [{"measurement": "IC50", "setting": "HDAC 6", "value": 0.55, "unit": "µM"}, {"measurement": "GI50", "setting": "[1]", "value": 5.88, "unit": "µM"}, {"measurement": "IC50", "setting": "HDAC 1", "value": 4.55, "unit": "µM"}, {"measurement": "Inhibitory activity (%) HDAC 8", "setting": "HDAC 8", "value": 150.4, "unit": "%"}, {"measurement": "IC50", "setting": "HDAC 8; recombinant HDAC enzyme, Boc-Lys(acetyl)-AMC, read-out: IC50 HDAC 8", "value": 0.037, "unit": "µM"}]}, {"compound": "CCCSS/C=C\\C[S+]([O-])c1cccc(OC)c1", "note": "(stereo not shown) [Example 18, (Z)-1-(3-(3-methoxyphenylsulfinyl)prop-1-enyl)-2-propyldisulfane]", "values": [{"measurement": "IC50", "setting": "HDAC 6", "value": 1.1, "unit": "µM"}, {"measurement": "GI50", "setting": "[1]", "value": 2.43, "unit": "µM"}, {"measurement": "IC50", "setting": "HDAC 1", "value": 3.52, "unit": "µM"}, {"measurement": "Inhibitory activity (%) HDAC 8", "setting": "HDAC 8", "value": 147.2, "unit": "%"}, {"measurement": "IC50", "setting": "HDAC 8; read-out: IC50 against HDAC 8", "value": 0.035, "unit": "µM"}]}]}
